We go through ten compounds from PubChem BioAssay (NCI).

“And” between values parts separate entries of the source, which are not always exact repeats. Equal values may be shown once.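 Tested at 5 concentrations; 48 h exposure; 96-well plates; endpoints linearly interpolated, else capped at highest concentration. The concentration for 50% growth inhibition is given as GI50. TGI is the concentration that stops growth completely.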

What all share (test): NCI tumour cell line growth inhibition, 48 h
Test [1] relates to OVCAR-3 ovarian.
Test [2] relates to M19-MEL melanoma.
The test system of test [3] is COLO 205 colon.
The subject of test [4] is SNB-75 CNS.
Test [5] has as its system OVCAR-4 ovarian.
The subject of test [6] is A549 NSCLC.
In test [7] the test system is SF-295 CNS.
Test [8] relates to A498 renal.
Test [9] relates to IGROV1 ovarian.
Test [10] relates to MDA-N.

As to `O=C(O)C1=Cc2cccc3cccc(c23)C1=O`, the TGI in [1], in test [2], in [3], in test [4], in [5] and in test [6] was more than 100 µM in each case. Besides, the figures for the TGI in test [7], in test [8] and in [9] were more than 100 µM, 73.5 µM and more than 100 µM, respectively.
With `CC(C)(C)N1CC1CNC(=O)C(=O)NCC1CN1C(C)(C)C` (centres undefined), the TGI in test [1] turned out to be 46.1 µM; in test [2], 2.62 µM; in test [3], 8.5 µM; in [4] it was 13.2 µM; in test [5] it was 60.2 µM; in test [6], 21.1 µM. In addition, the TGI in test [7] was 14.3 µM; in test [8] it was more than 6.04 µM; in test [9], 19.7 µM; in test [10] it was more than 92.9 µM.
Regarding `CC[O-].CC[O-].O=C1C=C([O-])C(=O)c2ccccc21.O=C1C=C([O-])C(=O)c2ccccc21.[Ti+4]`, the GI50 was more than 100 µM in test [1]; 1610 nM in test [2]; 24 µM in [3]; 4.99 µM in test [4]; more than 100 µM in [5]; 26 µM in test [6]. Moreover, the GI50 was 22.5 µM in test [8] and more than 100 µM in test [9]. Besides, the TGI is more than 100 µM in test [1]; 3.81 µM in [2]; more than 59.8 µM in [3]; more than 90.1 µM in test [4]; more than 100 µM in [5]; more than 100 µM in test [6]. For the same compound, the TGI is more than 100 µM in [7], more than 60.9 µM in test [8] and more than 100 µM in [9].
As for `CCCCCCCCCCCCC(O)C1CCC(C(O)CCCCC(O)CCCCCC2CC(CC(C)=O)C(=O)O2)O1` (centres undefined), the GI50 in [1] was 1.37 µM; in [3], 1.37 µM; in [4] it was 1.25 µM; in test [6], 1.55 µM; in [7], 508 nM; in test [8], 5.64 µM. Further, the GI50 in test [9] is 1.49 µM. Also, the TGI was 2.65 µM and 7.59 µM in test [1]; 12.5 µM in test [2]; 2.65 µM and 11.7 µM in [3]; 5.42 µM and 16.4 µM in test [4]; 19.1 µM in test [5]; 18.7 µM in test [6]. The TGI was 13.5 µM in test [7]; 20.6 µM in test [8]; 3.1 µM and 26.6 µM in test [9]; 4.81 µM in [10].
Regarding `OC1(C(Sc2ccccc2)Sc2ccccc2)CCCCCC1`, the TGI in test [1] was 45.7 µM; in [2] it was more than 100 µM; in [3], 57.8 µM; in [4], more than 100 µM; in [5], more than 100 µM; in [6], 89.5 µM. The TGI is 66.2 µM in test [7] and 85.2 µM in [8].
On to `CC(=O)OC1C(O)C(C)OC(OC2C(OC(=O)C3CCC4C(C3)OC3(CC(OC(=O)/C=C/c5ccccc5)C(C)CO3)C43CO3)OC(C)C(O)C2OC(C)=O)C1O` (centres undefined), for which the TGI in [1] turned out to be 0.0451 µM; in test [2], 0.0665 µM; in test [3], 0.0181 µM; in test [4], 0.0317 µM; in test [5], 0.051 µM; in test [6] it was 0.333 µM. In addition, the TGI was 0.145 µM in test [7], 0.188 µM in test [8], 0.0922 µM in test [9] and 0.0182 µM in [10].
`COC(=O)c1cc(O)ccc1O`: the TGI in test [1], in test [2], in test [3], in test [4], in [5] and in test [6] was more than 100 µM in each case. Also, the TGI in test [7] and in test [9] was more than 100 µM in each case.
As for `CC(=O)OC(C(=O)[O][Ge]([CH3])([CH3])[CH3])c1ccccc1` (centres undefined), the GI50 was more than 100 µM in test [1]; more than 100000 nM in test [2]; more than 100 µM in test [3]; more than 100 µM in test [4]; more than 100 µM in test [5]; more than 100 µM in [6]. Further, the GI50 was more than 100000 nM in test [7], more than 100 µM in [8] and more than 100 µM in [9]. Moreover, the TGI in test [1], in [2], in test [3], in test [4], in test [5] and in test [6] was more than 100 µM throughout. The TGI in test [7], in [8] and in [9] was more than 100 µM in each case.
On to `CC(=O)Oc1ccc2c(=O)c(C(C)=O)coc2c1`, for which the TGI in [1], in test [2], in test [3], in test [5], in [6] and in test [7] was more than 100 µM each time. Further, the TGI in [8] and in [9] was more than 100 µM in each case.
For the compound `CCOC(=O)C(C(=O)OCC)=C1C=C(c2ccccc2)c2ccccc21`, the TGI in [1], in [2], in test [3], in test [4], in test [5] and in test [6] was more than 100 µM in each case. Further, the TGI was more than 100 µM in test [7], 62.9 µM in test [8] and more than 100 µM in [9].
